Measured values: PubChem BioAssay (NCI)
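Cultured in 96-well plates, cells were exposed to test compound for 48 hours across five concentrations. GI50 is the concentration that inhibits growth by half. TGI denotes the concentration required for complete inhibition of growth.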

How the values were obtained:
Assay in all cases: NCI tumour cell line growth inhibition, 48 h
[1] = system: 786-0 renal
[2] = system: A498 renal
[3] = system: A549 NSCLC
[4] = system: ACHN renal
[5] = system: BT-549 breast
[6] = system: CAKI-1 renal
[7] = system: CCRF-CEM leukemia
[8] = system: COLO 205 colon
[9] = system: DU-145 prostate
[10] = system: EKVX NSCLC
[11] = system: HCC-2998 colon
[12] = system: HCT-116 colon
[13] = system: HCT-15 colon
[14] = system: HL-60(TB) leukemia
[15] = system: HOP-62 NSCLC
[16] = system: HOP-92 NSCLC
[17] = system: HS 578T breast
[18] = system: HT29 colon
[19] = system: IGROV1 ovarian
[20] = system: K-562 leukemia
[21] = system: KM12 colon
[22] = system: LOX IMVI melanoma
[23] = system: M14 melanoma
[24] = system: MALME-3M melanoma
[25] = system: MCF7 breast
[26] = system: MDA-MB-231 breast
[27] = system: MDA-MB-435
[28] = system: MOLT-4 leukemia
[29] = system: NCI-H226 lung
[30] = system: NCI-H23 lung
[31] = system: NCI-H460 lung
[32] = system: NCI-H522 lung
[33] = system: NCI/ADR-RES ovarian
[34] = system: OVCAR-3 ovarian
[35] = system: OVCAR-4 ovarian
[36] = system: OVCAR-5 ovarian
[37] = system: OVCAR-8 ovarian
[38] = system: PC-3 prostate
[39] = system: RPMI-8226 leukemia
[40] = system: RXF 393 renal
[41] = system: SF-268 CNS
[42] = system: SF-295 CNS
[43] = system: SF-539 CNS
[44] = system: SK-MEL-2 melanoma
[45] = system: SK-MEL-28 melanoma
[46] = system: SK-MEL-5 melanoma
[47] = system: SN12C renal
[48] = system: SNB-19 CNS
[49] = system: SNB-75 CNS
[50] = system: SR leukemia
[51] = system: SW-620 colon
[52] = system: T-47D breast
[53] = system: TK-10 renal
[54] = system: U251 CNS
[55] = system: UACC-257 melanoma
[56] = system: UACC-62 melanoma
[57] = system: UO-31 renal

With `COc1cc2c3c(n(CCCn4cncn4)c(=O)c2cc1OC)-c1cc2c(cc1C3=O)OCO2` the TGI [1] was > 49.3 µM, the GI50 [2] was 16.8 µM and the TGI [2] was > 100 µM. For the same compound, the GI50 [3] was 16.3 µM, the TGI [3] was > 100 µM and the GI50 [4] was < 0.01 µM. For the same compound, the TGI [4] was 2.56 µM, the GI50 [5] was 31.1 µM and the TGI [5] was > 100 µM. The TGI [6] was > 100 µM, the GI50 [7] was < 0.01 µM and the TGI [7] was 3.5 µM. For the same compound, the GI50 [8] was > 100 µM, the TGI [8] was > 100 µM and the GI50 [9] was < 0.0293 µM. For the same compound, the TGI [9] was > 34.7 µM, the GI50 [10] was > 84.1 µM and the TGI [10] was > 100 µM. The GI50 [11] was 16.6 µM, the TGI [11] was > 100 µM and the GI50 [12] was 0.567 µM. For the same compound, the TGI [12] was > 100 µM, the GI50 [13] was > 100 µM and the TGI [13] was > 100 µM. The GI50 [14] was < 0.0131 µM, the TGI [14] was 1.16 µM and the GI50 [15] was < 0.0283 µM. The TGI [15] was 59 µM, the GI50 [16] was 0.935 µM and the TGI [16] was 38.6 µM. The GI50 [17] was > 73.6 µM, the TGI [17] was > 100 µM and the GI50 [18] was > 73.1 µM. The TGI [18] was > 100 µM, the GI50 [19] was 10.9 µM and the TGI [19] was > 100 µM. The GI50 [20] was 1.49 µM, the TGI [20] was 28.1 µM and the GI50 [21] was > 100 µM. For the same compound, the TGI [21] was > 100 µM, the GI50 [22] was 0.0572 µM and the TGI [22] was > 49.3 µM. For the same compound, the GI50 [23] was < 0.01 µM, the TGI [23] was > 100 µM and the GI50 [24] was 1.36 µM. The TGI [24] was > 48.1 µM, the TGI [25] was > 100 µM and the GI50 [26] was 80.9 µM. For the same compound, the TGI [26] was > 100 µM, the GI50 [27] was > 100 µM and the TGI [27] was > 100 µM. For the same compound, the GI50 [28] was < 0.01 µM, the TGI [28] was 0.242 µM and the TGI [29] was > 100 µM. For the same compound, the GI50 [30] was 0.0906 µM, the TGI [30] was 57.5 µM and the GI50 [31] was < 0.01 µM. For the same compound, the TGI [31] was > 100 µM, the TGI [32] was > 100 µM and the GI50 [33] was 1.55 µM. For the same compound, the TGI [33] was > 100 µM, the GI50 [34] was 31.9 µM and the TGI [34] was > 100 µM. The GI50 [35] was > 100 µM, the TGI [35] was > 100 µM and the GI50 [36] was > 100 µM. For the same compound, the TGI [36] was > 100 µM, the TGI [37] was > 100 µM and the GI50 [38] was 39.8 µM. The TGI [38] was > 100 µM, the GI50 [39] was < 0.0194 µM and the TGI [39] was 12.3 µM. The GI50 [40] was 11.9 µM, the TGI [40] was > 100 µM and the GI50 [41] was 99 µM. The TGI [41] was > 100 µM, the GI50 [42] was < 0.01 µM and the TGI [42] was > 100 µM. For the same compound, the TGI [43] was 19.6 µM, the GI50 [44] was > 100 µM and the TGI [44] was > 100 µM. For the same compound, the GI50 [45] was > 100 µM, the TGI [45] was > 100 µM and the GI50 [46] was 0.671 µM. For the same compound, the TGI [46] was 31 µM, the TGI [47] was > 100 µM and the TGI [48] was > 100 µM. For the same compound, the GI50 [49] was 0.799 µM, the TGI [49] was 99.1 µM and the GI50 [50] was < 0.01 µM. For the same compound, the GI50 [51] was 1.08 µM, the TGI [51] was > 100 µM and the TGI [52] was > 100 µM. The GI50 [53] was 35.2 µM, the TGI [53] was > 88.1 µM and the GI50 [54] was < 0.0449 µM. For the same compound, the TGI [54] was 31.8 µM, the GI50 [55] was > 100 µM and the TGI [55] was > 100 µM. The GI50 [56] was < 0.01 µM, the GI50 [57] was 0.0913 µM and the TGI [57] was > 100 µM.
Compound `CCN(CC)CCn1c(=O)c2cc(OC)c(OC)cc2c2ccc3cc4c(cc3c21)OCO4` has a GI50 [1] of 0.479 µM, a TGI [1] of 13.4 µM and a GI50 [2] of 0.15 µM. The TGI [2] was 0.655 µM, the GI50 [3] was 0.725 µM and the TGI [3] was 8.53 µM. The GI50 [4] was 0.266 µM, the TGI [4] was 12 µM and the GI50 [5] was 0.456 µM. It also gave a TGI [5] of 17.2 µM, a GI50 [6] of 0.222 µM and a TGI [6] of 15.1 µM. The GI50 [7] was 0.0824 µM, the TGI [7] was > 33.6 µM and the GI50 [8] was 0.192 µM. The TGI [8] was 16.4 µM, the GI50 [9] was 0.321 µM and the TGI [9] was 6.93 µM. For the same compound, the GI50 [10] was 12.2 µM, the TGI [10] was 29.4 µM and the GI50 [11] was 2.57 µM. For the same compound, the TGI [11] was 25.7 µM, the GI50 [12] was 0.377 µM and the TGI [12] was 6.2 µM. The GI50 [13] was 1.61 µM, the TGI [13] was 10.3 µM and the GI50 [14] was 0.721 µM. For the same compound, the TGI [14] was 3.16 µM, the GI50 [15] was 0.246 µM and the TGI [15] was 13.8 µM. The GI50 [16] was 0.49 µM, the TGI [16] was > 50 µM and the GI50 [17] was 12.4 µM. It also gave a TGI [17] of 45.4 µM, a GI50 [18] of 0.195 µM and a TGI [18] of 6.16 µM. The GI50 [19] was 0.491 µM, the TGI [19] was 21.4 µM and the GI50 [20] was 0.536 µM. It also gave a GI50 [21] of 0.734 µM, a TGI [21] of 23.9 µM and a GI50 [22] of 0.139 µM. For the same compound, the TGI [22] was 0.584 µM, the GI50 [23] was 0.278 µM and the TGI [23] was 12.7 µM. It also gave a GI50 [24] of 0.354 µM, a TGI [24] of 14.5 µM and a GI50 [25] of 0.0607 µM. It also gave a TGI [25] of 24.8 µM, a GI50 [26] of 1.29 µM and a TGI [26] of 3.66 µM. For the same compound, the GI50 [27] was 0.795 µM, the TGI [27] was 20.9 µM and the GI50 [28] was 0.0715 µM. The TGI [28] was 3.72 µM, the GI50 [29] was 0.446 µM and the TGI [29] was > 50.6 µM. For the same compound, the GI50 [30] was 0.348 µM, the TGI [30] was 11.6 µM and the GI50 [31] was 0.0766 µM. It also gave a TGI [31] of 1.41 µM, a GI50 [32] of 0.151 µM and a TGI [32] of 21 µM. For the same compound, the GI50 [33] was 0.42 µM, the TGI [33] was 43.9 µM and the GI50 [34] was 7.57 µM. The TGI [34] was 25.5 µM, the GI50 [35] was 0.477 µM and the TGI [35] was 19.9 µM. For the same compound, the GI50 [36] was 8.21 µM, the TGI [36] was 36.1 µM and the GI50 [37] was 0.922 µM. For the same compound, the TGI [37] was 48.9 µM, the GI50 [38] was 0.799 µM and the TGI [38] was 99.7 µM. The GI50 [39] was 0.436 µM, the TGI [39] was 4.56 µM and the GI50 [40] was 0.448 µM. The TGI [40] was 17.2 µM, the GI50 [41] was 0.228 µM and the TGI [41] was 37.8 µM. For the same compound, the GI50 [42] was 0.0907 µM, the TGI [42] was 2.54 µM and the GI50 [43] was 0.253 µM. For the same compound, the TGI [43] was 0.818 µM, the GI50 [44] was > 100 µM and the TGI [44] was > 100 µM. For the same compound, the GI50 [45] was 12 µM, the TGI [45] was 24.8 µM and the GI50 [46] was 0.193 µM. For the same compound, the TGI [46] was 0.457 µM, the GI50 [47] was 0.455 µM and the TGI [47] was 20.2 µM. It also gave a GI50 [48] of 0.367 µM, a TGI [48] of 27.2 µM and a GI50 [49] of 0.305 µM. It also gave a TGI [49] of 15.4 µM, a GI50 [50] of 0.0415 µM and a TGI [50] of 2.51 µM. It also gave a GI50 [51] of 0.692 µM, a TGI [51] of 23.2 µM and a GI50 [52] of 0.26 µM. For the same compound, the TGI [52] was 26.4 µM, the GI50 [53] was 13.4 µM and the TGI [53] was 30.3 µM. The GI50 [54] was 0.201 µM, the TGI [54] was 18.6 µM and the GI50 [55] was 0.472 µM. For the same compound, the TGI [55] was 22.2 µM, the GI50 [56] was 0.163 µM and the TGI [56] was 14.8 µM. For the same compound, the GI50 [57] was 0.405 µM and the TGI [57] was 17.3 µM.
